Measured values: article PMC4051630, “A Comparison of Protein Kinases Inhibitor Screening Methods Using Both Enzymatic Activity and Binding Affinity Determination” (PLoS ONE, 2014)

Columns and labels:
Experiment in all cases: Differential Scanning Fluorimetry (DSF) Tm shift
Assay type in all cases: binding
[1] = molecular target: T1, AKT3 Catalytic Domain (Homo sapiens, UniProt Q9Y243); conditions: 2 µM protein, 10 µM inhibitor, average of 3 experiments, each in duplicate
T1 construct: AKT3 (Q9Y243); CD; His-tag; made in house; host or cells: Escherichia coli
T1 sequence (Q9Y243 122-479): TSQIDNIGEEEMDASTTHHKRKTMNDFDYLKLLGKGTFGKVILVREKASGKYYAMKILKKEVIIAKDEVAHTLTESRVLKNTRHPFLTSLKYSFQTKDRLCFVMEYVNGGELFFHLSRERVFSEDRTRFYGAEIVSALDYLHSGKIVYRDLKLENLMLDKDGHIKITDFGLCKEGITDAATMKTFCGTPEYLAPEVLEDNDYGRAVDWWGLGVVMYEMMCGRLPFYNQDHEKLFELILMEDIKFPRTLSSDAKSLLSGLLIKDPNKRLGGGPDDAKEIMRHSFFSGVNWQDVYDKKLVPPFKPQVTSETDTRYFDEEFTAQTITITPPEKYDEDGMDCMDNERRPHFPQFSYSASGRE

[2] = molecular target: T2, STK3 Catalytic domain+SARAH (Homo sapiens, UniProt Q13188); conditions: 2 µM protein, 10 µM inhibitor, average of 3 experiments, each in duplicate
T2 construct: for 8, we also made a longer version containing one or more additional domains; His-tag; made in house; host or cells: Escherichia coli
T2 sequence (Q13188 1-491): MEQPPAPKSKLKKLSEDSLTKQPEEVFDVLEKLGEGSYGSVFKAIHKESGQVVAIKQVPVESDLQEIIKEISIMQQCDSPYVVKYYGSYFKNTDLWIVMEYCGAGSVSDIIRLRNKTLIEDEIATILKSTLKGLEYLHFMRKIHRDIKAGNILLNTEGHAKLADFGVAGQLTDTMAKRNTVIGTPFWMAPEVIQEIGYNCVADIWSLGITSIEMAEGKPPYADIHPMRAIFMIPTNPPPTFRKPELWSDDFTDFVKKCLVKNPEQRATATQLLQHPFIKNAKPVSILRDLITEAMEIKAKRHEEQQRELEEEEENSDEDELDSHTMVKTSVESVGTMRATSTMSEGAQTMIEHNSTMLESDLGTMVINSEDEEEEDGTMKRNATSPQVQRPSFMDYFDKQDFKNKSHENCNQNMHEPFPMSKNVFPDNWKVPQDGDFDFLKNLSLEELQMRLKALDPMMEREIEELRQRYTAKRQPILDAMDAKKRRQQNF

[3] = molecular target: T3, CDK2 + Cyclin A (Homo sapiens, UniProt P24941); conditions: CDK2 + Cyclin A; 2 µM protein, 10 µM inhibitor; average of 3 experiments, each in duplicate
T3 construct: CDK2 (P24941); 1–299; His-tag; made in house; host or cells: Escherichia coli

[4] = molecular target: T4, CHK2 Catalytic Domain (Homo sapiens, UniProt O96017); conditions: 2 µM protein, 10 µM inhibitor, average of 3 experiments, each in duplicate
T4 construct: For all of them, we expressed and purified the catalytic domain separately; His-tag; made in house; host or cells: Escherichia coli
T4 sequence (O96017 220-486 limits assumed): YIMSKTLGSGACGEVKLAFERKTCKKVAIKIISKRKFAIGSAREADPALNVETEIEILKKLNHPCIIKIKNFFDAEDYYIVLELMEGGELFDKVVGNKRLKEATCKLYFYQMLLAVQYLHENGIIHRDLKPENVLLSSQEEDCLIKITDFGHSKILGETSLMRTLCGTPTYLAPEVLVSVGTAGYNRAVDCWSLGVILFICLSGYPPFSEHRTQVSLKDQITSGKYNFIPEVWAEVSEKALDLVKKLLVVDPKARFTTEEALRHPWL

[5] = molecular target: T5, PAK7 Catalytic Domain (Homo sapiens, UniProt Q9P286); conditions: 2 µM protein, 10 µM inhibitor, average of 3 experiments, each in duplicate
T5 construct: For all of them, we expressed and purified the catalytic domain separately; His-tag; made in house; host or cells: Escherichia coli
T5 sequence (Q9P286 449-700 limits assumed): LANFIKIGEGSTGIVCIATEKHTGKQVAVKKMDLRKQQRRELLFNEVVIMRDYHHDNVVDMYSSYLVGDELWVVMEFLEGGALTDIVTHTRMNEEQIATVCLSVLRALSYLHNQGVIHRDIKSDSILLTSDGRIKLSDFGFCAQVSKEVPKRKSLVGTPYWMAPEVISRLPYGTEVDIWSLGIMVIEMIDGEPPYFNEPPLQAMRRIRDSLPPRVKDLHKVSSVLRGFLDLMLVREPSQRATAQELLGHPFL

[6] = molecular target: SRC Catalytic Domain+SH2+SH3 (Homo sapiens, UniProt P12931); conditions: 2 µM protein, 10 µM inhibitor, average of 3 experiments, each in duplicate
[7] = molecular target: T6, DMPK Catalytic Domain (Homo sapiens, UniProt Q09013); conditions: 2 µM protein, 10 µM inhibitor, average of 3 experiments, each in duplicate
T6 construct: For all of them, we expressed and purified the catalytic domain separately; His-tag; made in house; host or cells: Escherichia coli
T6 sequence (Q09013 71-339 limits assumed): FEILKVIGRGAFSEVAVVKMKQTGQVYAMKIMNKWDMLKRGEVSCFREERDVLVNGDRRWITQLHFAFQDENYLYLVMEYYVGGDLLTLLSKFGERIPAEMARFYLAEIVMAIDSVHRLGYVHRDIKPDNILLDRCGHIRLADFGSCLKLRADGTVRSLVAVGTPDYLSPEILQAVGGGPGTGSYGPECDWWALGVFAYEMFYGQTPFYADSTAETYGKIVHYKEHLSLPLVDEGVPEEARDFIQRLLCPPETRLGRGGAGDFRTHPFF

[8] = molecular target: T7, FAK2 Catalytic Domain (Homo sapiens, UniProt Q14289); conditions: 2 µM protein, 10 µM inhibitor, average of 3 experiments, each in duplicate
T7 construct: For all of them, we expressed and purified the catalytic domain separately; His-tag; made in house; host or cells: Escherichia coli
T7 sequence (Q14289 425-683 limits assumed): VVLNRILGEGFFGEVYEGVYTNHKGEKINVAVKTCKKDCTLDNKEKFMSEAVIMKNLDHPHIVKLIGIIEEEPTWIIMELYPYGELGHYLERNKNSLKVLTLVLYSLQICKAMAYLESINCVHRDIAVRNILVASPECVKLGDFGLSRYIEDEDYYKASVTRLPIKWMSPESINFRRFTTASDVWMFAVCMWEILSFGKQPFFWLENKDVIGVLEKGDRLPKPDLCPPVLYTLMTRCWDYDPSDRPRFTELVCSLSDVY

[9] = molecular target: T8, STK3 Catalytic Domain (Homo sapiens, UniProt Q13188); conditions: 2 µM protein, 10 µM inhibitor, average of 3 experiments, each in duplicate
T8 construct: For all of them, we expressed and purified the catalytic domain separately; His-tag; made in house; host or cells: Escherichia coli
T8 sequence (Q13188 27-278 limits assumed): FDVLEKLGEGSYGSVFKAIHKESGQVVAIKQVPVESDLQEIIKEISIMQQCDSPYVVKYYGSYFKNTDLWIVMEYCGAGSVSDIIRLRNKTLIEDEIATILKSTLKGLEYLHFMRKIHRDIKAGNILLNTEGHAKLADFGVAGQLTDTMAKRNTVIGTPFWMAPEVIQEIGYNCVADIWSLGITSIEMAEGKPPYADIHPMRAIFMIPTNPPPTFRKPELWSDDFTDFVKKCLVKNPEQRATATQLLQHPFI

[10] = molecular target: T9, FES Catalytic Domain+SH2 (Homo sapiens, UniProt P07332); conditions: 2 µM protein, 10 µM inhibitor, average of 3 experiments, each in duplicate
T9 construct: for 8, we also made a longer version containing one or more additional domains; His-tag; made in house; host or cells: Escherichia coli
T9 sequence (P07332 448-822 limits assumed): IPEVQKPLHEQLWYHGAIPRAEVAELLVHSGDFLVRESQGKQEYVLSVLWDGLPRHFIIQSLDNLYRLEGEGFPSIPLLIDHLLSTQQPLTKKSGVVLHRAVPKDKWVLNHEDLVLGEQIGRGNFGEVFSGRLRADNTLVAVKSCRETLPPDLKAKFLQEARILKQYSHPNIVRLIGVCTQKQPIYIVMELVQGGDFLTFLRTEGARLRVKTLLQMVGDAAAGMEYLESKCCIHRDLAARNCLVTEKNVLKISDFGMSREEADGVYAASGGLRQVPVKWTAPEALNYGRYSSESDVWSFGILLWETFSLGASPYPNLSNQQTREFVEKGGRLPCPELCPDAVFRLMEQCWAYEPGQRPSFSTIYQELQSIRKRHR

[11] = molecular target: T10, CDK2 + Cyclin E (Homo sapiens, UniProt P24941); conditions: CDK2 + Cyclin E; 2 µM protein, 10 µM inhibitor; average of 3 experiments, each in duplicate
T10 construct: CDK2 (P24941); 1–299; His-tag; made in house; host or cells: Escherichia coli

[12] = molecular target: T11, FES Catalytic Domain (Homo sapiens, UniProt P07332); conditions: 2 µM protein, 10 µM inhibitor, average of 3 experiments, each in duplicate
T11 construct: For all of them, we expressed and purified the catalytic domain separately; His-tag; made in house; host or cells: Escherichia coli
T11 sequence (P07332 561-822 limits assumed): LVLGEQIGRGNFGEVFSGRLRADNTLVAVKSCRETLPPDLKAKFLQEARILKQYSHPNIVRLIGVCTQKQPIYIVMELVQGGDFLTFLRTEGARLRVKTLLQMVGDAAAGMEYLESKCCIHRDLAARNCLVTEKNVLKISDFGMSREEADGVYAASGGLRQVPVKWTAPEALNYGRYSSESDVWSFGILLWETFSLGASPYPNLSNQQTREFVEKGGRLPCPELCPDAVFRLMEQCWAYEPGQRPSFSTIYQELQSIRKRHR

[13] = molecular target: SRC Catalytic Domain (Homo sapiens, UniProt P12931); design: For all of them, we expressed and purified the catalytic domain separately; His-tag; made in house; host or cells: Escherichia coli; conditions: 2 µM protein, 10 µM inhibitor, average of 3 experiments, each in duplicate
[14] = molecular target: T12, PAK4 Catalytic Domain (Homo sapiens, UniProt O96013); conditions: 2 µM protein, 10 µM inhibitor, average of 3 experiments, each in duplicate
T12 construct: For all of them, we expressed and purified the catalytic domain separately; His-tag; made in house; host or cells: Escherichia coli
T12 sequence (O96013 321-572 limits assumed): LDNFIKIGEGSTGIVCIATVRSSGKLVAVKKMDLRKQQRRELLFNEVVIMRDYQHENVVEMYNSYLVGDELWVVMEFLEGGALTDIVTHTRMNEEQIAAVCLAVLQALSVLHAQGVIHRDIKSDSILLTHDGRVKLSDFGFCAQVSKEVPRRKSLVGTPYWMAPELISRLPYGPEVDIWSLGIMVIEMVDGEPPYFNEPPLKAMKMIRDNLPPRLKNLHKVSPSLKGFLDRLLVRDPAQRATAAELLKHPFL

[15] = molecular target: T13, PAK4 Catalytic Domain+PBD (Homo sapiens, UniProt O96013); conditions: 2 µM protein, 10 µM inhibitor, average of 3 experiments, each in duplicate
T13 construct: for 8, we also made a longer version containing one or more additional domains; His-tag; made in house; host or cells: Escherichia coli
T13 sequence (O96013 whole entry, the tested form may be a part): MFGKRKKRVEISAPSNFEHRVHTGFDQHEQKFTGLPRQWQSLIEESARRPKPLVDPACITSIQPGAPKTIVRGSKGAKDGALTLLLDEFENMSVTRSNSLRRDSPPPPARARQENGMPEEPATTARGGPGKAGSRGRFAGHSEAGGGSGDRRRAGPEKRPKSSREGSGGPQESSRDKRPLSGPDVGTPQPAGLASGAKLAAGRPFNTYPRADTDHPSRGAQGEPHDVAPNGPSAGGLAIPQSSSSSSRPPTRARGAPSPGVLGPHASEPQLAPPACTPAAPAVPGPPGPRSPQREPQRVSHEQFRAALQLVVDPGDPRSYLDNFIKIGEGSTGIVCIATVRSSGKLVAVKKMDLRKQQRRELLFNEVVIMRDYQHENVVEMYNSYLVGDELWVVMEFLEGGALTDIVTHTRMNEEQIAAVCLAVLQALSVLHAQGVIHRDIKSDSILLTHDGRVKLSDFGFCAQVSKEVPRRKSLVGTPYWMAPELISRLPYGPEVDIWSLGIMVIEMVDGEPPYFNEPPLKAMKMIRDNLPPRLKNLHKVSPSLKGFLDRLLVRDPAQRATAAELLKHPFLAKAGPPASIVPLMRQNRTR

Row | Molecule | Melting temperature (Tm) shift [1] | Melting temperature (Tm) shift [2] | Melting temperature (Tm) shift [3] | Melting temperature (Tm) shift [4] | Melting temperature (Tm) shift [5] | Melting temperature (Tm) shift [6] | Melting temperature (Tm) shift [7] | Melting temperature (Tm) shift [8] | Melting temperature (Tm) shift [9] | Melting temperature (Tm) shift [10] | Melting temperature (Tm) shift [11] | Melting temperature (Tm) shift [12] | Melting temperature (Tm) shift [13] | Melting temperature (Tm) shift [14] | Melting temperature (Tm) shift [15]
1 | O=C1Nc2ccc3ncsc3c2/C1=C/c1cnc[nH]1 [PKR Inhibitor] | 0.3 degrees Celcius | 7.0 degrees Celcius | 4.4 degrees Celcius | 4.0 degrees Celcius | 1.9 degrees Celcius | 0.3 degrees Celcius | 0.8 degrees Celcius | 1.1 degrees Celcius | 4.9 degrees Celcius | 0.7 degrees Celcius | 4.3 degrees Celcius | 3.2 degrees Celcius | 0.7 degrees Celcius | 1.9 degrees Celcius | 1.8 degrees Celcius
2 | Cl.Cl.NCCNc1ncc(C(N)=O)c(Nc2cccc(C(F)(F)F)c2)n1 [Syk Inhibitor II] | 0.0 degrees Celcius | 1.3 degrees Celcius | 0.5 degrees Celcius | 4.7 degrees Celcius | 5.1 degrees Celcius | 0.4 degrees Celcius | 0.7 degrees Celcius | 1.9 degrees Celcius | 1.6 degrees Celcius | 1.3 degrees Celcius | 0.6 degrees Celcius | 3.1 degrees Celcius | 0.1 degrees Celcius | 4.7 degrees Celcius | 4.8 degrees Celcius
3 | Cn1cc(/C=C2\C(=O)Nc3ccc(S(N)(=O)=O)cc32)c2ccccc21 [Syk Inhibitor] | 0.0 degrees Celcius | 2.0 degrees Celcius | 0.7 degrees Celcius | 5.2 degrees Celcius | 0.9 degrees Celcius | 0.2 degrees Celcius | 0.9 degrees Celcius | 0.4 degrees Celcius | 2.0 degrees Celcius | 0.4 degrees Celcius | 0.4 degrees Celcius | 2.0 degrees Celcius | 0.1 degrees Celcius | 1.7 degrees Celcius | 2.2 degrees Celcius
4 | N#Cc1cnc2cnc(NCc3cccnc3)cc2c1Nc1ccc(F)c(Cl)c1 [Tpl2 Kinase Inhibitor] | 0.1 degrees Celcius | 0.4 degrees Celcius | 0.2 degrees Celcius | 0.3 degrees Celcius | 0.1 degrees Celcius | 0.1 degrees Celcius | 1.4 degrees Celcius | 0.5 degrees Celcius | 0.2 degrees Celcius | 0.2 degrees Celcius | 0.5 degrees Celcius | 0.0 degrees Celcius | 0.2 degrees Celcius | 0.5 degrees Celcius | 0.6 degrees Celcius
5 | Chk2 Inhibitor | 0.0 degrees Celcius | 3.4 degrees Celcius | 2.9 degrees Celcius | 8.7 degrees Celcius | 0.3 degrees Celcius | 0.3 degrees Celcius | 1.4 degrees Celcius | 2.6 degrees Celcius | 2.3 degrees Celcius | 0.6 degrees Celcius | 1.9 degrees Celcius | 3.0 degrees Celcius | 0.2 degrees Celcius | 0.7 degrees Celcius | 0.6 degrees Celcius
6 | DNA-PK Inhibitor V | 0.1 degrees Celcius | 0.5 degrees Celcius | 0.0 degrees Celcius | 0.2 degrees Celcius | 0.0 degrees Celcius | 0.0 degrees Celcius | 0.6 degrees Celcius | 0.3 degrees Celcius | 0.0 degrees Celcius | 0.3 degrees Celcius | 0.2 degrees Celcius | 0.1 degrees Celcius | 0.2 degrees Celcius | 0.4 degrees Celcius | 0.5 degrees Celcius
